Where two headings read alike, the source gives them in different places.
Assays:
M2 macrophages [1] = test: Anti-cell viability screening: reduction of M2 macrophage cell viability (Percentage Relative Cell Viability versus Log Molar Concentration); type: cell-based
Procedure: Assays were conducted in a 96-well black solid-bottom plate with a final assay volume of 100 μL.

[2] = system: M2 polarized macrophages with intact CD206 (wild type) versus isogenic M2 polarized macrophages lacking the CD206 receptor; test: Cell viability in M2 polarized macrophages with intact CD206 versus isogenic macrophages lacking CD206; type: cell-based
M2 macrophages [3] = test: Cancer cell phagocytosis by M1 and M2 macrophages, relative quantitative fluorescence; type: cell-based; settings: M2 versus M1 macrophages
Excerpt: FIGS. 14A to 14B illustrate this selectivity towards M2 macrophages.

[4] = Pharmacokinetics (PK) profile, plasma concentration versus time; type: in vivo
[5] = system: RAW264.7 macrophages polarized into M1 and M2; test: Induction of phagocytosis, autophagy and apoptosis in RAW264.7 macrophages polarized into M1 and M2; type: cell-based, murine
Excerpt: (§1) Induction of phagocytosis, autophagy, and apoptosis was studied in two in vitro models using M1 and M2 macrophages. […] FIGS. 12A to 12E illustrate this selectivity. […] FIGS. 13A to 13C illustrate this selectivity

[6] = system: CD206 negative control cell lines (DC2.4, fibroblast HTT, non-polarized RAW264.7, KPC cancer cells); test: Cell viability in a panel of CD206 negative control cell lines; type: cell-based
Excerpt: (§2) Similar selectivity is observed in dendritic cell DC2.4 viability (FIG. 9B), fibroblast HTT viability (FIG. 9C), RAW cell viability (FIG. 9D), and KPC viability (FIG. 9E).

[7] = system: murine M1 macrophages and M2 macrophages; test: Induction of phagocytosis, autophagy and apoptosis in bone marrow derived macrophages (BMDM), M1 versus M2, relative fluorescence; type: cell-based
Excerpt: as §1

[8] = system: KPC allograft tumors grown in C57BL/6 mice; test: M2 macrophages adaptive transfer study in KPC allograft model; type: in vivo; settings: intratumoral injections 3 times a week, compared to vehicle
[9] = molecular target: T1, recombinant human CD206 protein (UniProt ID P22897-1) (Homo sapiens, UniProt P22897); test: Electron microscopy of recombinant CD206 incubated with compound, particles scored closed versus open; type: binding; settings: 30 minutes at 1 μM
T1 sequence (P22897 19-1456): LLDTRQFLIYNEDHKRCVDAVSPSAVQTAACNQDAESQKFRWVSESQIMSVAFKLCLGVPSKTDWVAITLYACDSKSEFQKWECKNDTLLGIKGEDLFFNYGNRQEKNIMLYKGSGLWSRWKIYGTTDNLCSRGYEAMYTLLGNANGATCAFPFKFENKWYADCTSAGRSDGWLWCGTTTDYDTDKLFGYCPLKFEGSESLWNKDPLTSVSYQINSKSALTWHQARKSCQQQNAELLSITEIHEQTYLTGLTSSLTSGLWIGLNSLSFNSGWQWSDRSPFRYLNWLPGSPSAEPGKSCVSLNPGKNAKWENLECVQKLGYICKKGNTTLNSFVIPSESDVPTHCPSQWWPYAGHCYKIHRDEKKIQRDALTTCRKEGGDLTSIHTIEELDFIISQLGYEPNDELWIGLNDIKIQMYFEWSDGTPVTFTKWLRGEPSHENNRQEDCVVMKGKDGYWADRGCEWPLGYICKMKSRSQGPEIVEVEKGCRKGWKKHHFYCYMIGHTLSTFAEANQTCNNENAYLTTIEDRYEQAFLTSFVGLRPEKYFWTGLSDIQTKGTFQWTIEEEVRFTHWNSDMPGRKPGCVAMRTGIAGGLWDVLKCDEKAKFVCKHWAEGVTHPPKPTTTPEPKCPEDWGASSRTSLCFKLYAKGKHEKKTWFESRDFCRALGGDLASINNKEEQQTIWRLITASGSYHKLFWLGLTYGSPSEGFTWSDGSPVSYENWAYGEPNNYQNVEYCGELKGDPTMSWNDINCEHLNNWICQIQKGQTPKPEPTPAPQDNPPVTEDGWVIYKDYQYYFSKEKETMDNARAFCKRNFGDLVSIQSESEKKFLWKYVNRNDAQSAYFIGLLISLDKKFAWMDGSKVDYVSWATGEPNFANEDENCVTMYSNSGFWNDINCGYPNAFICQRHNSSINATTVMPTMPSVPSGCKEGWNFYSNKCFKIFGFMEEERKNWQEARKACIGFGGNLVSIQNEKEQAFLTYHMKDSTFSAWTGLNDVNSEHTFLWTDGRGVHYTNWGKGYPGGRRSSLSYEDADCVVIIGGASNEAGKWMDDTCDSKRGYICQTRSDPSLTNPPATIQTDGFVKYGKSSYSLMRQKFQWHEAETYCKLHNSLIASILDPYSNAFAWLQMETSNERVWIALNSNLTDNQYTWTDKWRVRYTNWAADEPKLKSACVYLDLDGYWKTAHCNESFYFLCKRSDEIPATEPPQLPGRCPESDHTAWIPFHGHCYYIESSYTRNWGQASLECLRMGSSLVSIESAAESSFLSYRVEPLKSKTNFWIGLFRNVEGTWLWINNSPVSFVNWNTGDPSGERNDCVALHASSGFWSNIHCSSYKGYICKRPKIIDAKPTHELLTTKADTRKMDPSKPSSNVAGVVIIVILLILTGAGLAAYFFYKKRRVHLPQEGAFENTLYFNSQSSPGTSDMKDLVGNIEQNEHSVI
Procedure: FIGS. 11A and 11B illustrate conformational change on CD206 when incubated with Compound 1.

[10] = system: human CD206^high M2 macrophages; test: Cell viability assay of human macrophages; type: cell-based; settings: derived from healthy volunteers, compared to M1-like macrophages
Excerpt: as §2

[11] = system: Kras(G12D)/Trp53(R172H)/Pdx-1-Cre (KPC) mice (murine pancreatic cancer model); test: In vivo testing in transgenic KPC mice, tumor growth; settings: compared to vehicle
Excerpt: Tumor growth was suppressed during in vivo testing of Compound 1 in fully immune-competent transgenic Kras(G12D)/Trp53(R172H)/Pdx-1-Cre (KPC) mice (murine pancreatic cancer model) compared to vehicle as shown in FIG. 3B. This point was further illustrated in FIGS. 3A and 3C where comparison of tumor volume for mice treated with Compound-1 and untreated mice (vehicle) is shown.

KPC tumors = test: Quantitative flow cytometry of autochthonous KPC tumors (intratumoral immune landscape); type: in vivo, mice
murine M2 macrophages = test: M1 markers in murine M2 macrophages by quantitative flow cytometry; type: cell-based; settings: 20 μM for 2 hours
[12] = Macrophage, figure legends and text, read-out: IC50, macrophage activity (Percentage Relative Cell Viability versus Log Molar Concentration) (converted)
[13] = Macrophage, Table 2, read-out: IC50
[14] = CD11b+F4/80+Gr-1 negative cells

`O=C(NCCN1CCOCC1)c1ccc(-c2ncc3cnc(-c4ccccc4)cn23)cc1` [Compound 4, N-(2-Morpholinoethyl)-4-(6-phenylimidazo[1,5-a]pyrazin-3-yl)benzamide] gave an IC50 (M2 macrophages [1]; [12]) of 8.95 µM.

Molecule `O=C(NCCCO)c1ccc(-c2ncc3cnc(-c4cccc(F)c4)cn23)cc1` [Compound 9, 4-(6-(3-fluorophenyl)imidazo[1,5-a]pyrazin-3-yl)-N-(3-hydroxypropyl)benzamide] has an IC50 (M2 macrophages [1]; [12]) of 0.73 µM.

Work on `NC(=O)c1ccc(-c2ncc3cnc(-c4cccc(F)c4)cn23)cc1` [Compound 8, 4-(6-(3-fluorophenyl)imidazo[1,5-a]pyrazin-3-yl)benzamide] yielded an IC50 (M2 macrophages [1]; [12]) of 0.45 µM.

With `CC(=O)c1c(C)oc2ccc(N(C(=O)Oc3ccccc3)[S+](=O)(O)c3ccccc3)cc12` [Compound 3] the IC50 (M2 macrophages [1]; [13]) was 3.88 µM, the “M2 Selectivity” value (M2 macrophages [1]; Table 2) was “Yes” and the “CD206 dependence of macrophage activity” value [2] was “CD206 dependent”.

In the case of `CN(C)CCNC(=O)c1ccc(-c2ncc3cnc(-c4ccccc4)cn23)cc1` [Compound 7, N-(2-(dimethylamino)ethyl)-4-(6-phenylimidazo[1,5-a]pyrazin-3-yl)benzamide], the IC50 (M2 macrophages [1]; [12]) is reported as 3.13 µM.

For `O=C(NCCCN1CCCC1=O)c1ccc(-c2ncc3cnc(-c4ccccc4)cn23)cc1` [Compound 28, N-(3-(2-oxopyrrolidin-1-yl)propyl)-4-(6-phenylimidazo[1,5-a]pyrazin-3-yl)benzamide], the cancer cell phagocytosis (M2 macrophages [3]) was “increases cancer cell phagocytosis in M2 but not in M1 macrophages”.

`O=C(NCCCn1ccnc1)c1ccc(-c2ncc3cnc(-c4ccccc4)cn23)cc1` [Compound 6, N-(3-(1H-imidazol-1-yl)propyl)-4-(6-phenylimidazo[1,5-a]pyrazin-3-yl)benzamide] gave an IC50 (M2 macrophages [1]; [12]) of 3.85 µM.

For `O=C(NCCc1cnc[nH]1)c1ccc(-c2ncc3cnc(-c4ccccc4)cn23)cc1` [Compound 1, N-(2-(1H-imidazol-5-yl)ethyl)-4-(6-phenylimidazo[1,5-a]pyrazin-3-yl)benzamide], the IC50 (M2 macrophages [1]; [13]) was 2.86 µM, the IC50 (M2 macrophages [1]; [12]) was 2.86 µM and the “M2 Selectivity” value (M2 macrophages [1]; Table 2) was “Yes”. The concentration at 0.157 h ([4]; IP (intraperitoneal), 20 mg/kg) was 7.89 µM, the concentration at 0.5 h ([4]; IP (intraperitoneal), 20 mg/kg) was 7.6 µM and the concentration at 1 h ([4]; IP (intraperitoneal), 20 mg/kg) was 11.1 µM. For the same molecule, the concentration at 1.5 h ([4]; IP (intraperitoneal), 20 mg/kg) was 12.8 µM, the concentration at 2 h ([4]; IP (intraperitoneal), 20 mg/kg) was 5.84 µM and the concentration at 4 h ([4]; IP (intraperitoneal), 20 mg/kg) was 3020 nM. The concentration at 7 h ([4]; IP (intraperitoneal), 20 mg/kg, 7.0 h) was 540 nM, the concentration at 0.157 h ([4]; PO (Per Os, oral), 30 mg/kg) was 0.011 µM and the concentration at 0.5 h ([4]; PO (Per Os, oral), 30 mg/kg) was 0.016 µM. The concentration at 1 h ([4]; PO (Per Os, oral), 30 mg/kg) was 0.023 µM, the concentration at 1.5 h ([4]; PO (Per Os, oral), 30 mg/kg) was 0.19 µM and the concentration at 2 h ([4]; PO (Per Os, oral), 30 mg/kg) was 0.163 µM. For the same molecule, the concentration at 4 h ([4]; PO (Per Os, oral), 30 mg/kg) was 11 nM, the PK profile ([4]; liver, and pancreas, oral and IP injection) was “excellent PK profile” and the “selectivity to induce phagocytosis, autophagy, and apoptosis” value ([5]; RAW264.7 cell in vitro model) was “excellent selectivity to induce phagocytosis, autophagy, and apoptosis in M2 but not in M1 macrophages”. The induction of apoptosis ([5]; compared to vehicle) was “induces apoptosis in M2 macrophages”, the induction of autophagy ([5]; compared to vehicle) was “induces autophagy in M2 macrophages” and the induction of phagocytosis ([5]; compared to vehicle) was “induces phagocytosis in M2 macrophages”. The “selectivity versus CD206 negative control cell lines” value [6] was “selective for the CD206^high M2 macrophages”, the “selectivity to induce phagocytosis, autophagy, and apoptosis” value ([7]; BMDM in vitro model) was “excellent selectivity to induce phagocytosis, autophagy, and apoptosis in M2 but not in M1 macrophages” and the induction of apoptosis ([7]; M1 versus M2) was “induces apoptosis in M2 but not in M1 macrophages”. For the same molecule, the induction of autophagy ([7]; M1 versus M2) was “induces autophagy in M2 but not in M1 macrophages”, the “induction of early phagocytosis” value ([7]; M1 versus M2) was “induces early phagocytosis in M2 but not in M1 macrophages” and the induction of phagocytosis ([7]; M1 versus M2) was “induces phagocytosis in M2 but not in M1 macrophages”. For the same molecule, the “induction of phagolysosome formation” value ([7]; M1 versus M2) was “induces phagolysosome formation in M2 but not in M1 macrophages”, the “dose response in induction of phagocytosis” value ([7]; murine M2 macrophages treated for 24 hours) was “full dose response” and the “CD206 dependence of macrophage activity” value [2] was “CD206 dependent”. For the same molecule, the “Tumor growth after intratumoral injection of pretreated M2 macrophages” value [8] was “reduction of tumor”, the “CD206 particles in a closed state” value [9] was 48% and the “CD206 particles in open state” value [9] was 52%. The “binding to CD206 and conformation of the receptor” value [9] was “binds to CD206 and induces a conformational switch of the receptor”, the “binding to CD206 and conformation of the receptor” value ([9]; listed as Example 38) was “induces the closed conformation of the CD206 receptor” and the cancer cell phagocytosis (M2 macrophages [3]) was “increases cancer cell phagocytosis in M2 but not in M1 macrophages”. For the same molecule, the “activity in human CD206^high M2 macrophages” value [10] was “active”, the Tumor growth [11] was “suppressed” and the “CD206 positive cells within tumor associated macrophage population” value (KPC tumors; [14]) was “reduction of CD206 positive cells”. The “Signal regulatory protein α (SIRPα) of tumor associated macrophages” value (KPC tumors; [14]) was “reduction of the innate checkpoint Signal regulatory protein α (SIRPα)”, the “CD206 macrophages in tumors (percent positive cell fractions of total cells)” value (KPC tumors; compared to vehicle) was “reduction of CD206 macrophages” and the “M2 to M1 macrophage shift in tumors” value (KPC tumors; compared to vehicle) was “shift from CD206^high M2 to CD86-positive M1 macrophages”. The “intratumoral CD8 cells” value (KPC tumors; compared to vehicle) was “increase in intratumoral CD8 cells”, the “M1 markers in intratumoral M1 and M2 macrophage populations” value (KPC tumors; treatment for three weeks in KPC mice, compared to vehicle) was “induction of M1 markers” and the “M1 markers (percent positive cell fractions)” value (murine M2 macrophages) was “induction of M1 markers in M2 macrophages”.

Work on `CC(=O)Nc1ccc(NC(=O)c2ccc(-c3ncc4cnc(-c5ccccc5)cn34)cc2)cc1` [Compound 5, N-(4-acetamidophenyl)-4-(6-phenylimidazo[1,5-a]pyrazin-3-yl)benzamide] yielded an IC50 (M2 macrophages [1]; [12]) of 7.36 µM.

With `O=C(c1cc2ccccc2[nH]1)N1CCc2c(n(Cc3cccnc3)n(CCc3ccccc3)c2=O)C1` [Compound 2] the IC50 (M2 macrophages [1]; [13]) was 4.59 µM, the “M2 Selectivity” value (M2 macrophages [1]; Table 2) was “Yes” and the “CD206 dependence of macrophage activity” value [2] was “CD206 dependent”. The “M1 markers (percent positive cell fractions)” value (murine M2 macrophages) was “induction of M1 markers in M2 macrophages”.

`CC(=O)NCCNC(=O)c1ccc(-c2ncc3cnc(-c4cccc(F)c4)cn23)cc1` [Compound 10, N-(2-acetamidoethyl)-4-(6-(3-fluorophenyl)imidazo[1,5-a]pyrazin-3-yl)benzamide] showed an IC50 (M2 macrophages [1]; figure legends and text, read-out: IC50, macrophage activity (Percentage Relative Cell Viability versus Log Molar Concentration) (converted)) of 5.45 µM.

Source: patent US20230056497A1, “CD206 Modulators Their Use and Methods for Preparation” (The United States of America, As Represented by the …, priority 2019, published 2023)
